From US6686478B2, “Thienylsulphonylamino(thio)carbonyl compounds” (Bayer Aktiengesellschaft, priority 1996, dated 2004) come the findings set out here.

Molecules are shown by their SMILES.

The subject of one data set is Chenopodium. Nature of the data set: Pre-emergence test/greenhouse. In kind it is in vivo. To be noted: greenhouse, 125 g of ai./ha, after three weeks, 0%=no effect, 100%=total destruction. On the procedure: (§1) Solvent: 5 parts by weight of acetone
(§2) Emulsifier: 1 part by weight of alkylaryl polyglycol ether
(§3) To produce a suitable preparation of active compound, 1 part by weight of active compound is mixed with the stated amount of solvent, the stated amount of emulsifier is added and the concentrate is diluted with water to the desired concentration.
(§4) Seeds of the test plants are sown in normal soil. After about 24 hours, the soil is watered with the preparation of the active compound. Advantageously, the amount of water per unit area is kept constant. The active compound concentration in the preparation is not important, only the active compound application rate per unit area is critical.
(§5) After three weeks, the degree of damage to the plants is rated in % damage in comparison with the development of the untreated control. The figures denote:
(§6) 0%=no effect (like untreated control)

A further data set relates to Solanum. The data set is described as follows: Pre-emergence test/greenhouse. It counts as in vivo. Conditions: greenhouse, 125 g of ai./ha, after three weeks, 0%=no effect, 100%=total destruction. On the procedure: as §1, §2, §3, §4, §5, §6
The test system of the next data set is Cyperus. Nature of the data set: Pre-emergence test/greenhouse. To be noted: greenhouse, 125 g of ai./ha, after three weeks, 0%=no effect, 100%=total destruction. It counts as in vivo. On the procedure:
as §1, §2, §3, §4, §5, §6

In another data set the test system is Wheat. Nature of the data set: Pre-emergence test/greenhouse. Conditions: greenhouse, 125 g of ai./ha, after three weeks, 0%=no effect, 100%=total destruction. It counts as in vivo. On the procedure: as §1, §2, §3, §4, §5, §6
The test system of a further data set is Matricaria. The data set is described as follows: Pre-emergence test/greenhouse. In kind it is in vivo. To be noted: greenhouse, 125 g of ai./ha, after three weeks, 0%=no effect, 100%=total destruction. How it is done: as §1, §2, §3, §4, §5, §6
A further data set has as its system Bromus. The data set is described as follows: Pre-emergence test/greenhouse. It counts as in vivo. To be noted: greenhouse, 125 g of ai./ha, after three weeks, 0%=no effect, 100%=total destruction. How it is done: as §1, §2, §3, §4, §5, §6
In data set [1] the test system is Setaria. Nature of the data set: Pre-emergence test/greenhouse. It counts as in vivo. To be noted: greenhouse, 125 g of ai./ha, after three weeks, 0%=no effect, 100%=total destruction. How it is done: as §1, §2, §3, §4, §5, §6
For a further data set, the system named is Lolium. Nature of the data set: Pre-emergence test/greenhouse. In kind it is in vivo. Conditions: greenhouse, 125 g of ai./ha, after three weeks, 0%=no effect, 100%=total destruction. On the procedure:
as §1, §2, §3, §4, §5, §6

Data set [2] relates to weeds. The data set is described as follows: Pre-emergence test, summary for weeds. To be noted: result in words. It counts as in vivo. How it is done: as §1, §2, §3, §4, §5, §6
In data set [3] the test system is Maize. The data set is described as follows: Pre-emergence test/greenhouse. In kind it is in vivo. To be noted: greenhouse, 125 g of ai./ha, after three weeks, 0%=no effect, 100%=total destruction. How it is done:
as §1, §2, §3, §4, §5, §6

Data set [4] concerns Sinapis. Nature of the data set: Pre-emergence test/greenhouse. It counts as in vivo. Conditions: greenhouse, 250 g of ai./ha, after three weeks, 0%=no effect, 100%=total destruction. On the procedure: as §1, §2, §3, §4, §5, §6
The subject of another data set is Alopecurus. Nature of the data set: Pre-emergence test/greenhouse. In kind it is in vivo. To be noted: greenhouse, 250 g of ai./ha, after three weeks, 0%=no effect, 100%=total destruction. How it is done:
as §1, §2, §3, §4, §5, §6

The test system of the next data set is Xanthium. The data set is described as follows: Pre-emergence test/greenhouse. It counts as in vivo. Conditions: greenhouse, 250 g of ai./ha, after three weeks, 0%=no effect, 100%=total destruction. How it is done:
as §1, §2, §3, §4, §5, §6

Data set [5] has as its system Amaranthus. Nature of the data set: Pre-emergence test/greenhouse. It counts as in vivo. To be noted: greenhouse, 250 g of ai./ha, after three weeks, 0%=no effect, 100%=total destruction. On the procedure: as §1, §2, §3, §4, §5, §6
The subject of data set [6] is Abutilon. Nature of the data set: Pre-emergence test/greenhouse. It counts as in vivo. To be noted: greenhouse, 250 g of ai./ha, after three weeks, 0%=no effect, 100%=total destruction. How it is done: as §1, §2, §3, §4, §5, §6
In data set [7] the test system is Sinapis. The data set is described as follows: Post-emergence test/greenhouse. It counts as in vivo. To be noted: greenhouse, 250 g of ai/ha, after three weeks, 0%=no effect, 100%=total destruction. How it is done: as §1, §2, §3
(§7) Test plants which have a height of 5-15 cm are sprayed with the preparation of the active compound in such a way as to apply the particular amounts of active compound desired per unit area. The concentration of the spray liquor is chosen so that the amounts of active compound desired in each case are applied in 1000 l of water/ha.
(§8) After three weeks, the degree of damage to the plants is rated in % damage in comparison with the development of the untreated control.
as §6

Data set [8] relates to Amaranthus. The data set is described as follows: Post-emergence test/greenhouse. It counts as in vivo. Conditions: greenhouse, 250 g of ai/ha, after three weeks, 0%=no effect, 100%=total destruction. How it is done:
as §1, §2, §3, §7, §8, §6

For data set [9], the system named is Maize. Nature of the data set: Post-emergence test/greenhouse. Conditions: greenhouse, 250 g of ai/ha, after three weeks, 0%=no effect, 100%=total destruction. It counts as in vivo. On the procedure:
as §1, §2, §3, §7, §8, §6

Data set [10] relates to Setaria. Nature of the data set: Post-emergence test/greenhouse. To be noted: greenhouse, 250 g of ai/ha, after three weeks, 0%=no effect, 100%=total destruction. It counts as in vivo. On the procedure: as §1, §2, §3, §7, §8, §6
For data set [11], the system named is weeds. Nature of the data set: Post-emergence test, summary for weeds. It counts as in vivo. To be noted: result in words. On the procedure:
as §1, §2, §3, §7, §8, §6

Data set [12] concerns Abutilon. The data set is described as follows: Post-emergence test/greenhouse. In kind it is in vivo. Conditions: greenhouse, 250 g of ai/ha, after three weeks, 0%=no effect, 100%=total destruction. On the procedure: as §1, §2, §3, §7, §8, §6

Usually melting point stands for the temperature of the solid-liquid transition. In the case of `CCOc1nn(C(=O)NS(=O)(=O)c2c(C)csc2C)c(=O)n1C` [Example 1, 5-ethoxy-4-methyl-2-(2,4-dimethyl-thien-3-yl-sulphonylaminocarbonyl)-2,4-dihydro-3H-1,2,4-triazol-3-one], the melting point worked out at 158 °C. The “degree of damage to the plants, Chenopodium” value (shortened to “degree of damage … Chenopodium”) in the data set on Chenopodium is on record as 100%. Besides, the “degree of damage to the plants, Solanum” value in the data set on Solanum is 100%. The “degree of damage to the plants, Cyperus” value with Cyperus is 95%. Further, in the data set with Wheat, the “degree of damage to the plants, Wheat” value turned out to be 0%. The “degree of damage to the plants, Matricaria” value (“degree of damage … Matricaria” below) in the data set on Matricaria is recorded as 100%. The “degree of damage to the plants, Bromus” value in the data set with Bromus came to 100%. For the same molecule, in the data set with Setaria [1], the “degree of damage to the plants, Setaria” value is reported as 100%. Further, the “degree of damage to the plants, Lolium” value in the data set on Lolium was 100%. Further, in the data set on weeds [2], the activity against weeds entry was “very strong activity”.
`Cc1nc(C(=O)NS(=O)(=O)c2c(C)csc2C)no1` [Example 2, N-(2,4-dimethyl-thien-3-yl-sulphonyl)-5-methyl-1,2,4-oxadiazol-3-carboxamide] came in with a melting point of 164 °C.
For the molecule `CCc1nn(C(=O)NS(=O)(=O)c2c(C)csc2C)c(=O)n1C` [Example 3], the “degree of damage … Chenopodium” value in the data set with Chenopodium worked out at 100%. In addition, the “degree of damage to the plants, Maize” value in the data set with Maize [3] was 5%. Further, the “degree of damage to the plants, Solanum” value with Solanum was determined as 100%. Further, the “degree of damage to the plants, Cyperus” value with Cyperus is listed as 100%. Further, the “degree of damage … Matricaria” value with Matricaria worked out at 100%. In the data set on Bromus, the “degree of damage to the plants, Bromus” value is recorded as 100%. The “degree of damage to the plants, Setaria” value in the data set on Setaria [1] came to 100%. Besides, in the data set with Lolium, the “degree of damage to the plants, Lolium” value is reported as 100%. The activity against weeds result in the data set on weeds [2] is given as “very strong activity”.
As for `CSc1nn(C(=O)NS(=O)(=O)c2c(C)csc2C)c(=O)n1C` [Example 4], the “degree of damage … Chenopodium” value in the data set with Chenopodium is 90%. Moreover, in the data set on Maize [3], the “degree of damage to the plants, Maize” value stood at 0%. Moreover, the “degree of damage to the plants, Solanum” value with Solanum is recorded as 80%. For the same molecule, in the data set on Cyperus, the “degree of damage to the plants, Cyperus” value was 95%. Moreover, the “degree of damage to the plants, Wheat” value in the data set with Wheat is 0%. Besides, in the data set on Matricaria, the “degree of damage … Matricaria” value is reported as 90%. The “degree of damage to the plants, Bromus” value in the data set with Bromus was 95%. For the same molecule, the “degree of damage to the plants, Setaria” value in the data set with Setaria [1] was determined as 100%. For the same molecule, in the data set with Lolium, the “degree of damage to the plants, Lolium” value turned out to be 100%. For the same molecule, the activity against weeds result with weeds [2] is on record as “very strong activity”.
For `CCCOc1nn(C(=O)NS(=O)(=O)c2c(C)csc2C)c(=O)n1C` [Example 5], the “degree of damage to the plants, Sinapis” value in the data set on Sinapis [4] is listed as 95%. In addition, the “degree of damage to the plants, Alopecurus” value in the data set on Alopecurus is 70%. Besides, the “degree of damage to the plants, Xanthium” value with Xanthium amounted to 90%. In addition, the “degree of damage to the plants, Amaranthus” value (“degree of damage … Amaranthus” for short) in the data set on Amaranthus [5] stood at 90%. For the same molecule, in the data set on Abutilon [6], the “degree of damage to the plants, Abutilon” value is recorded as 90%. In addition, in the data set on weeds [2], the activity against weeds entry was “very strong activity”.
With `Cc1csc(C)c1S(=O)(=O)NC(=O)n1nc(OC(C)C)n(C)c1=O` [Example 6], in the data set on Sinapis [7], the “degree of damage to the plants, Sinapis” value was 100%. Besides, the “degree of damage … Amaranthus” value in the data set on Amaranthus [8] came to 90%. In addition, the “degree of damage to the plants, Maize” value with Maize [9] was determined as 10%. Moreover, the “degree of damage to the plants, Setaria” value in the data set with Setaria [10] was 80%. Also, the activity against weeds result in the data set with weeds [11] is listed as “very strong activity”.
Take `COc1nn(C(=O)NS(=O)(=O)c2c(C)csc2C)c(=O)n1C` [Example 11]: the “degree of damage … Chenopodium” value with Chenopodium was 95%. For the same molecule, the “degree of damage to the plants, Solanum” value with Solanum is 95%. Besides, the “degree of damage to the plants, Cyperus” value with Cyperus was determined as 100%. For the same molecule, the “degree of damage … Matricaria” value in the data set with Matricaria was 100%. Also, in the data set on Bromus, the “degree of damage to the plants, Bromus” value was 100%. Further, the “degree of damage to the plants, Setaria” value in the data set with Setaria [1] is on record as 100%. For the same molecule, in the data set with Lolium, the “degree of damage to the plants, Lolium” value was 100%. Moreover, in the data set with weeds [2], the activity against weeds entry is recorded as “very strong activity”.
`CCOc1nn(C(=O)NS(=O)(=O)c2c(C)csc2C)c(=O)n1C1CC1` [Example 12]: in the data set with Sinapis [4], the “degree of damage to the plants, Sinapis” value stood at 95%. The “degree of damage to the plants, Alopecurus” value with Alopecurus is on record as 70%. Also, the “degree of damage … Amaranthus” value in the data set on Amaranthus [5] is reported as 90%. Also, the “degree of damage to the plants, Abutilon” value in the data set on Abutilon [6] amounted to 90%. Further, the activity against weeds result in the data set on weeds [2] is on record as “very strong activity”.
Take `CCOc1nn(C(=O)NS(=O)(=O)c2c(C)csc2C)c(=O)n1CC` [Example 13]: in the data set with Sinapis [7], the “degree of damage to the plants, Sinapis” value was 100%. Besides, the “degree of damage … Amaranthus” value with Amaranthus [8] was found to be 100%. Further, the “degree of damage to the plants, Setaria” value in the data set with Setaria [10] is on record as 80%. The “degree of damage to the plants, Abutilon” value in the data set with Abutilon [12] is 80%. Also, the activity against weeds entry in the data set on weeds [11] is on record as “very strong activity”.
`C#CCSc1nn(C(=O)NS(=O)(=O)c2c(C)csc2C)c(=O)n1C` [Example 14]: the “degree of damage to the plants, Sinapis” value in the data set with Sinapis [7] is 95%. Moreover, the “degree of damage … Amaranthus” value with Amaranthus [8] worked out at 95%. In addition, in the data set on Maize [9], the “degree of damage to the plants, Maize” value stood at 10%. Moreover, the “degree of damage to the plants, Setaria” value with Setaria [10] is reported as 90%. The activity against weeds entry in the data set with weeds [11] was “very strong activity”.
